According to patent US20240018145A1, “[…]-DEPENDENT EN[…] TREATING OR […]” (priority 2020, published 2024):

System: FLU A (PR/8/34)
Experiment: Flu A Neuraminidase Antiviral Assay
Assay type: cell-based
Details: not given

| SMILES | EC50 [nM] |
| --- | --- |
| CN1C(=O)c2c(O)c(=O)ccn2N2C1CCCC2(C)c1ccccc1 (single isomer, unassigned) [Compound 18A, 7-hydroxy-1,5-dimethyl-1-phenyl-1,2,3,4,4a,5-hexahydrodipyrido[1,2-b:2′,1′-f][1,2,4]triazine-6,8-dione] | 7.1 |
| CN1C(=O)c2c(O)c(=O)ccn2N2C(c3ccccc3F)CCCC12 (single isomer, unassigned) [Compound 8B, 1-(2-fluorophenyl)-7-hydroxy-5-methyl-1,2,3,4,4a,5-hexahydrodipyrido[1,2-b:2′,1′-f][1,2,4]triazine-6,8-dione] | 65.6 |
| CCN1C(=O)c2c(O)c(=O)cc(COC)n2N2C(c3ccccc3)C(CC(F)(F)F)CCC12 (centres unmarked) [Compound 131F, 5-ethyl-7-hydroxy-10-(methoxymethyl)-1-phenyl-2-(2,2,2-trifluoroethyl)-1,2,3,4,4a,5-hexahydrodipyrido[1,2-b:2′,1′-f][1,2,4]triazine-6,8-dione] | 12.5 |
| CN1C(=O)c2c(O)c(=O)ccn2N2C1CCC(C)(CC(F)(F)F)C2c1ccccc1 (single isomer, unassigned) [Compound 71A, 7-hydroxy-2,5-dimethyl-1-phenyl-2-(2,2,2-trifluoroethyl)-1,2,3,4,4a,5-hexahydrodipyrido[1,2-b:2′,1′-f][1,2,4]triazine-6,8-dione] | 5910 |
| CC1CC(c2ccccc2)N2C(C1)N(C)C(=O)c1c(O)c(=O)ccn12 (single isomer, unassigned) [Compound 6A, 7-hydroxy-3,5-dimethyl-1-phenyl-1,2,3,4,4a,5-hexahydrodipyrido[1,2-b:2′,1′-f][1,2,4]triazine-6,8-dione] | 372 |
| Cc1cc(=O)c(O)c2n1N1C(c3ccccc3)C(CC(F)(F)F)CCC1N(C)C2=O (single isomer, unassigned) [Compound 132B, 7-hydroxy-5,10-dimethyl-1-phenyl-2-(2,2,2-trifluoroethyl)-1,2,3,4,4a,5-hexahydrodipyrido[1,2-b:2′,1′-f][1,2,4]triazine-6,8-dione] | 21.3 |
| CCN1C(=O)c2c(O)c(=O)ccn2N2C(c3ccccc3)C(C3(C(F)(F)F)CC3)CCC12 (single isomer, unassigned) [Compound 104B, 5-ethyl-7-hydroxy-1-phenyl-2-(1-(trifluoromethyl)cyclopropyl)-1,2,3,4,4a,5-hexahydrodipyrido[1,2-b:2′,1′-f][1,2,4]triazine-6,8-dione] | > 810 |
| Cc1ccc(C2(C)CCCC3N(CC(F)(F)F)C(=O)c4c(O)c(=O)ccn4N32)nc1 (single isomer, unassigned) [Compound 49A, 7-hydroxy-1-methyl-1-(5-methylpyridin-2-yl)-5-(2,2,2-trifluoroethyl)-1,2,3,4,4a,5-hexahydrodipyrido[1,2-b:2′,1′-f][1,2,4]triazine-6,8-dione] | > 8100 |
| CN1C(=O)c2c(O)c(=O)ccn2N2C(c3c(F)cccc3F)CCCC12 (single isomer, unassigned) [Compound 7A, 1-(2,6-difluorophenyl)-7-hydroxy-5-methyl-1,2,3,4,4a,5-hexahydrodipyrido[1,2-b:2′,1′-f][1,2,4]triazine-6,8-dione] | > 8100 |
| CCN1C(=O)c2c(O)c(=O)cc(COC)n2N2C(c3ccccc3)C(CC(F)(F)F)CCC12 (centres unmarked) [Compound 131D, 5-ethyl-7-hydroxy-10-(methoxymethyl)-1-phenyl-2-(2,2,2-trifluoroethyl)-1,2,3,4,4a,5-hexahydrodipyrido[1,2-b:2′,1′-f][1,2,4]triazine-6,8-dione] | > 810 |
| CN1C(=O)c2c(O)c(=O)ccn2N2C1CCC1(CCC(C(F)(F)F)CC1)C2c1ccccc1 (single isomer, unassigned) [Compound 73B, 7′-hydroxy-5′-methyl-1′-phenyl-4-(trifluoromethyl)-3′,4′,4a′,5′-tetrahydro-1′H-spiro[cyclohexane-1,2′-dipyrido[1,2-b:2′,1′-f][1,2,4]triazine]-6′,8′-dione] | > 810 |
| CN1C(=O)c2c(O)c(=O)ccn2N2[C@H](c3ccccc3)[C@H](OCC(F)F)CC[C@@H]12 (single isomer, unassigned) [Compound 153B] | 94.4 |
| CC1(c2ccccc2)CCCC2N(CC3COC3)C(=O)c3c(O)c(=O)ccn3N21 (single isomer, unassigned) [Compound 40A, 7-hydroxy-1-methyl-5-(oxetan-3-ylmethyl)-1-phenyl-1,2,3,4,4a,5-hexahydrodipyrido[1,2-b:2′,1′-f][1,2,4]triazine-6,8-dione] | 14.4 |
| CN1C(=O)c2c(O)c(=O)ccn2N2C(c3ccccc3Cl)C(CCO)CCC12 (centres unmarked) [Compound 66A, 1-(2-chlorophenyl)-7-hydroxy-2-(2-hydroxyethyl)-5-methyl-1,2,3,4,4a,5-hexahydrodipyrido[1,2-b:2′,1′-f][1,2,4]triazine-6,8-dione] | > 8100 |
| CN1C(=O)c2c(O)c(=O)ccn2N2C(c3ccccc3)C(c3ccc(F)c(F)c3F)CCC12 (single isomer, unassigned) [Compound 85A, 7-hydroxy-5-methyl-1-phenyl-2-(2,3,4-trifluorophenyl)-1,2,3,4,4a,5-hexahydrodipyrido[1,2-b:2′,1′-f][1,2,4]triazine-6,8-dione] | > 810 |
| CN1C(=O)c2c(O)c(=O)ccn2N2C(c3cccc(Br)c3)C(CC(F)(F)F)CCC12 (single isomer, unassigned) [Compound 83B, 1-(3-bromophenyl)-7-hydroxy-5-methyl-2-(2,2,2-trifluoroethyl)-1,2,3,4,4a,5-hexahydrodipyrido[1,2-b:2′,1′-f][1,2,4]triazine-6,8-dione] | 2.2 |
| CC1(c2ccccc2)CCCC2N(CCC(F)(F)F)C(=O)c3c(O)c(=O)ccn3N21 (single isomer, unassigned) [Compound 38B, 7-hydroxy-1-methyl-1-phenyl-5-(3,3,3-trifluoropropyl)-1,2,3,4,4a,5-hexahydrodipyrido[1,2-b:2′,1′-f][1,2,4]triazine-6,8-dione] | 5.8 |
| CN1C(=O)c2c(O)c(=O)ccn2N2C(c3ccccc3)C(c3ccc(F)c(F)c3F)CCC12 (single isomer, unassigned) [Compound 85B, 7-hydroxy-5-methyl-1-phenyl-2-(2,3,4-trifluorophenyl)-1,2,3,4,4a,5-hexahydrodipyrido[1,2-b:2′,1′-f][1,2,4]triazine-6,8-dione] | 9.7 |
| CN1C(=O)c2c(O)c(=O)ccn2N2C(c3ccccc3)C(CCC(F)(F)F)CCC12 (single isomer, unassigned) [Compound 128B, 7-hydroxy-5-methyl-1-phenyl-2-(3,3,3-trifluoropropyl)-1,2,3,4,4a,5-hexahydrodipyrido[1,2-b:2′,1′-f][1,2,4]triazine-6,8-dione] | 1.5 |
| CCN1C(=O)c2c(O)c(=O)ccn2N2C(c3ccccc3C)C(CCC(F)F)CCC12 (single isomer, unassigned) [Compound 102A, 2-(3,3-difluoropropyl)-5-ethyl-7-hydroxy-1-(o-tolyl)-1,2,3,4,4a,5-hexahydrodipyrido[1,2-b:2′,1′-f][1,2,4]triazine-6,8-dione] | 2.9 |
| CN1C(=O)c2c(O)c(=O)ccn2N2C(c3cccc(F)c3)CCCC12 (single isomer, unassigned) [Compound 10A, 1-(3-fluorophenyl)-7-hydroxy-5-methyl-1,2,3,4,4a,5-hexahydrodipyrido[1,2-b:2′,1′-f][1,2,4]triazine-6,8-dione] | 1610 |
| CN1C(=O)c2c(O)c(=O)ccn2N2C1CCC1(CCC(F)(F)C1)C2c1ccccc1 (single isomer, unassigned) [Compound 68B, 3,3-difluoro-7′-hydroxy-5′-methyl-1′-phenyl-3′,4′,4a′,5′-tetrahydro-1′H-spiro[cyclopentane-1,2′-dipyrido[1,2-b:2′,1′-f][1,2,4]triazine]-6′,8′-dione] | > 810 |
| CCN1C(=O)c2c(O)c(=O)ccn2N2C(c3ccccc3Br)C(CC(F)(F)F)CCC12 (single isomer, unassigned) [Compound 106A, 1-(2-bromophenyl)-5-ethyl-7-hydroxy-2-(2,2,2-trifluoroethyl)-1,2,3,4,4a,5-hexahydrodipyrido[1,2-b:2′,1′-f][1,2,4]triazine-6,8-dione] | 6.4 |
| CN1C(=O)c2c(O)c(=O)ccn2N2C(c3ccccc3)C(CC3CC3(F)F)CCC12 (single isomer, unassigned) [Compound 114A, 2-((2,2-difluorocyclopropyl)methyl)-7-hydroxy-5-methyl-1-phenyl-1,2,3,4,4a,5-hexahydrodipyrido[1,2-b:2′,1′-f][1,2,4]triazine-6,8-dione] | > 8100 |

Same assay, conditions: MDCK, 48 h

| SMILES | EC50 [nM] |
| --- | --- |
| CC(=O)N(C)[C@H]1CC[C@@H](c2ccccc2)N2[C@@H]1N(C)C(=O)c1c(O)c(=O)ccn12 [Compound 145, N-((1S,4S,4aS)-7-hydroxy-5-methyl-6,8-dioxo-1-phenyl-1,2,3,4,4a,5,6,8-octahydrodipyrido[1,2-b:2′,1′-f][1,2,4]triazin-4-yl)-N-methylacetamide] | > 810 |
| CN1C(=O)c2c(O)c(=O)ccn2N2C(c3ccccc3C(F)(F)F)CCCC12 (single isomer, unassigned) [Compound 14A, 7-hydroxy-5-methyl-1-(2-(trifluoromethyl)phenyl)-1,2,3,4,4a,5-hexahydrodipyrido[1,2-b:2′,1′-f][1,2,4]triazine-6,8-dione] | > 8100 |
| CN1C(=O)c2c(O)c(=O)ccn2N2[C@H](c3ccccc3)[C@H](OCC3(C#N)CCC3)CC[C@@H]12 [Compound 159, 1-((((1R,2R,4aS)-7-hydroxy-5-methyl-6,8-dioxo-1-phenyl-1,2,3,4,4a,5,6,8-octahydrodipyrido[1,2-b:2′,1′-f][1,2,4]triazin-2-yl)oxy)methyl)cyclobutane-1-carbonitrile] | 210 |
| CN1C(=O)c2c(O)c(=O)c(C#N)cn2N2C(c3ccccc3)C(CC(F)(F)F)CCC12 (centres unmarked) [Compound 133, 7-hydroxy-5-methyl-6,8-dioxo-1-phenyl-2-(2,2,2-trifluoroethyl)-1,2,3,4,4a,5,6,8-octahydrodipyrido[1,2-b:2′,1′-f][1,2,4]triazine-9-carbonitrile] | > 810 |
| CC(C)S[C@H]1CC[C@H]2N(C)C(=O)c3c(O)c(=O)ccn3N2[C@@H]1c1ccccc1 [Compound 143B] | 15.3 |
